Assay results as given in US20080118990A1, “Assay For Lipoproteins Using Lumiphore K-37” (Science and Technology Facilities Council, priority 2004, published 2008).
Each block holds one molecule with its values, some of them ahead of it.

Experiments:
[1] = biological target: T1, Human Serum Albumin (HSA) (Homo sapiens, UniProt P02768); test: K-37 fluorescence with HSA with and without octanoate, blocking of HSA (Example 2)
[2] = test system: LDL; test: K-37 fluorescence in LDL with and without octanoate (Example 2); format: binding
Procedure: The dye K-37 was added at a concentration of 0.5 mM to LDL at a total lipid concentration of 5 mM, in the presence and absence of 50 mg/ml HSA. Measurements were made with and without the addition of 0.1 M sodium octanoate, which acted as a ligand binding inhibitor.

[3] = test system: LDL; test: Nile Red fluorescence in LDL with and without octanoate (Example 3); format: binding
[4] = test system: HDL; test: Nile Red fluorescence in HDL compared with VLDL and LDL at different excitation wavelengths (Example 6); parameters: species or system human
Procedure: Further optimisation of the assay according to the invention Further tests were performed on human serum samples to investigate optimum excitation wavelengths for inducing fluorescence indicative of HDL levels according to the method of the invention.
The inventors tested a number of wavelengths and have established that, when using Nile Red, that an excitation wavelength of 600 nm and an emission wavelength of 620 nm gives optimal results (see FIG. 15). The inventors were surprised that this excitation wavelength was optimal because it is to the very long wavelength edge of the spectrum.
For certain samples the inventors observed a noisier plot with an excitation wavelength of 460 nm and an emission wavelength of 620 nm (see FIG. 16).
The inventors believe that Nile Red is about 5 times more fluorescent in HDL than VLDL and LDL when excited at 600 nm as opposed to excitation at 460 nm where it is only about 2 times more fluorescent. This gives a better signal to noise when subtracting from the standard curve of LDL plus VLDL.

[5] = biological target: T1, Human Serum Albumin (HSA); test: Nile Red fluorescence with HSA with and without octanoate (Example 3); format: binding
[6] = biological target: drug binding domain of HSA (Homo sapiens, UniProt P02768); test: Displacement of Nile Red from HSA by agents that block the drug binding domain (Example 6); conditions: agent at about 5 mM, without affecting the lipoprotein fluorescence
drug binding domain of HSA, sequence (P02768 25-609): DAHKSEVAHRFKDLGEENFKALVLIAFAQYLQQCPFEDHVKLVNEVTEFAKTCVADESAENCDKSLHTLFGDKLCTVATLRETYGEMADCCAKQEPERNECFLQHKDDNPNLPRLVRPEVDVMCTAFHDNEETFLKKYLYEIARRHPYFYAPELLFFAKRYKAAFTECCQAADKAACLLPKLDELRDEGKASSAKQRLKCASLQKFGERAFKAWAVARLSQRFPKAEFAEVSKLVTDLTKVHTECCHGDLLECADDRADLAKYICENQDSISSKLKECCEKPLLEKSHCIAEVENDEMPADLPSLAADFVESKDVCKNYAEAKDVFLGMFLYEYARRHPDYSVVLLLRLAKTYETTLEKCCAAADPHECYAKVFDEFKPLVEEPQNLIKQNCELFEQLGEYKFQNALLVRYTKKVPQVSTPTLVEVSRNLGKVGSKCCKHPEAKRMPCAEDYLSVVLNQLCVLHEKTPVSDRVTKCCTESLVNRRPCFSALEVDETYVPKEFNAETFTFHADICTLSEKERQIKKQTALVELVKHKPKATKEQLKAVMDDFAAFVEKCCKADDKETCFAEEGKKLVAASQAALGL
Source text: (§1) This lead the inventors to realise that the HDL/Nile red assay may be improved further by using an additional blocker. They tried agents that block the drug binding domain of HSA. […] The benzoic acid has the added bonus of quenching the Nile Red residual fluorescence in solution by about 20%.

[7] = Quenching of Nile Red residual fluorescence in solution (Example 6); format: physicochemical
Source text: as §1

T1 sequence (P02768 25-609): as above

Fluorescence Intensity ([1]; 0.5 mM K-37 plus 50 mg/ml HSA + 0.1 M sodium octanoate): 3600 units | Fluorescence Intensity ([1]; 0.5 mM K-37 plus 50 mg/ml HSA, no octanoate): 79300 units
SMILES: CN(C)c1ccc(/C=C/C(=O)c2ccc(S(=O)(=O)C(F)F)cc2)cc1 [K-37, 4-dimethylamino-4′-difluoromethyl-sulphonyl-benzylidene-acetophenone]
Fluorescence Intensity ([2]; 0.5 mM K-37 plus 5 mM LDL + 0.1 M sodium octanoate): 209700 units | Fluorescence Intensity ([2]; 0.5 mM K-37 plus 5 mM LDL, no octanoate): 213500 units

Fluorescence Intensity ([5]; 0.5 mM Nile Red plus 50 mg/ml HSA + 50 mM octanoate): 9.118 units | Fluorescence Intensity ([5]; 0.5 mM Nile Red plus 50 mg/ml HSA, no octanoate): 58.905 units
SMILES: CCN(CC)c1ccc2nc3c4ccccc4c(=O)cc-3oc2c1 [Nile Red]
Fluorescence Intensity ([3]; 0.5 mM Nile Red plus 5 mM LDL + 50 mM octanoate): 183.786 units | Fluorescence Intensity ([3]; 0.5 mM Nile Red plus 5 mM LDL, no octanoate): 187.532 units | times more fluorescent in HDL than VLDL and LDL ([4]; excitation at 460 nm): about 2 times | times more fluorescent in HDL than VLDL and LDL ([4]; excited at 600 nm): about 5 times

SMILES: O=C(O)c1ccccc1 [benzoic acid]
displacement of Nile Red from HSA [6]: worked to displace the Nile Red from HSA | quenching of Nile Red residual fluorescence in solution [7]: about 20%

SMILES: CCCCCCCC(=O)[O-].[Na+] [octanoate, sodium octanoate]
effect of octanoate on Nile Red fluorescence in LDL ([3]; 50 mM octanoate, 5 mM LDL, 0.5 mM Nile Red): little effect | effect of octanoate on K-37 fluorescence in LDL ([2]; 0.1 M sodium octanoate, 5 mM LDL, 0.5 mM K-37): little effect
